# Experimental data from patent US20230107216A1, “PANTETHEINE DERIVATIVES AND USES THEREOF” (Comet Therapeutics, Inc., priority 2018, published 2023).
# Experiments:
# [1] = system: Keratinocytes co-cultured with dermal fibroblast (KF3CT system); assay: BioMAP KF3CT system (IL-1β, TNFα, IFNγ, TGFβ); format: cell-based, human; conditions: for % increase in MCP-1: procedure of Example 834
# Summary of the method: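 Pooled primary human keratinocytes and dermal fibroblasts (2-6 donors) co-cultured to confluence, pretreated 1h with compounds at 1 and 10 μM (DMSO ≤0.1%), then stimulated with IL-1β, TNFα, IFNγ and TGFβ for 24h. Read-outs: MCP-1, ICAM-1, IP-10, IL-8, MIG, IL-1α, MMP-9, PAI-1, SRB, TIMP-2, uPA.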
# [2] = system: tyrosine hydroxylase positive mesencephalic neurons injured by MPP+; assay: Neuroprotective effect on damage induced by MPP+ on culture of mesencephalic neurons; format: cell-based; conditions: Rattus norvegicus, Neuron, MPP+ 50 μM, 48h, read-out: % reversion of TH positive neurons (MPTP-mediated degradation of dopaminergic neurons)
# Description: A female Wistar rat (Janvier; France) of 15 days gestation was terminated by cervical dislocation, the fetuses were removed from the uterus and their brains were harvested and placed in ice-cold medium (Leibovitz's L15 medium, Gibco). Only ventral mesencephalic flexure was used for the cell preparations. The midbrain was dissociated by trypsinization. The reaction was stopped, and the suspension was triturated and centrifuged. The pellet of dissociated cells was resuspended in chemically defined medium consisted of Neurobasal (Gibco), containing B27 supplement (Gibco) and L-glutamine (Gibco), 10 ng/ml (BDNF; Pepro Tech, France) and 1 ng/ml (GDNF; Pepro Tech).
# Viable primary rat embryo mesencephalic cells were counted and seeded on 96-multi-wells plate precoated with poly-L-lysine. Cells were maintained in a humidified incubator at 37° C. in 5% CO2-95% air atmosphere and medium changed on day 2. On day 6, the culture medium was removed and replaced by new media without neurotrophic factors containing the compounds of the present disclosure (50-10 μM) or vehicle (0.1% DMSO). After 1h exposure, injury of mesencephalon neuronal cultures was induced by MPP^+ (50 μM) for further 48h. A mixture of the growth factors GDNF (1 ng/ml) and BDNF (10 ng/ml) were used as reference compound. On day 8, the tyrosine hydroxylase positive neurons were evaluated. Cultures were fixed 30 min at 4° C. with paraformaldehyde in PBS (4%, Thermo Scientific, 28908). After, cells were permeabilized with 0.1% Triton X100 for 30 min, saturated with PBS containing 3% of BSA (bovine serum albumin) and incubated 2h with anti-tyrosine hydroxylase antibody (Sigma, 1:10000; clone TH-2) at 1/10000 in PBS containing 0.5% of BSA. Cells were washed three times with PBS containing 0.5% of BSA and incubated 1h with goat anti mouse antibody coupled with AF488 (Invitrogen A11001) diluted at 1/1000 in PBS containing 0.5% of BSA. Finally, nuclei were stained with DAPI at 1/1000 in PBS containing 0.5% of BSA. After rinsing with PBS, the plate was visualized and examined with Cell Insight HCS (Thermo Scientific) to determine the number of tyrosine hydroxylase positive cells per well.
# The results for each well were expressed as a percentage by setting the density of tyrosine hydroxylase positive cells under control conditions to 100%. Then the result for each condition was reported as mean±SEM from 4 independent cultures.
# A global analysis of the data was performed using a one-way analysis of variance (ANOVA), followed by Fisher's Protected Least Significant Difference when applicable. The level of significance was set to p<0.05.
# [3] = system: Bronchial epithelial cells co-cultured with dermal fibroblast (BF4T system); assay: BioMAP BF4T system (TNFα and IL-4); format: cell-based, human
# [4] = 10 uM, procedure of Example 830
Compound,% increase in MMP-9 ([1]; 1 uM),% increase in MCP-1 ([1]; 1 uM),inhibition at 10 µM [2],"% increase in MCP-1 ([3]; 1 uM, procedure of Example 830)","% increase in MMP-9 ([3]; 1 uM, procedure of Example 830)","% increase in Eotaxin-3 [3, 4]","activation at 1 µM ([3]; Homo sapiens, 24 h, 1 uM, procedure of Example 830, read-out: % increase in VCAM-1)",% increase in TIMP-2 ([1]; 10 uM),"% increase in 1L-8 ([3]; 1 uM, procedure of Example 830)",% decrease in IL-1α ([3]; 10 uM),"% increase in MMP-9 [3, 4]","activation at 10 µM ([3]; Homo sapiens, 24 h, 10 uM, procedure of Example 830, read-out: % increase in VCAM-1)"
"CC(C)(CO)[C@@H](O)C(=O)NCCC(=O)NCCSC(=O)[C@@H](N)Cc1ccc(O)c(O)c1 [Compound 371, (2R)—N-[2-[(2-[[(2S)-2-amino-3-(3,4-dihydroxyphenyl)propanoyl]sulfanyl]ethyl)carbamoyl]ethyl]-2,4-dihydroxy-3,3-dimethylbutanamide]",≥10%,≥10%,≥ 60%,≥10%,≥10%,≥10%,≥ 10%,,,,,
"CC(=O)SCCNC(=O)CCNC(=O)[C@H](O)C(C)(C)COC(=O)[C@@H](N)Cc1ccc(O)c(O)c1 [Compound 498, (3R)-3-[(2-[[2-(acetylsulfanyl)ethyl]carbamoyl]ethyl)carbamoyl]-3-hydroxy-2,2-dimethylpropyl (2S)-2-amino-3-(3,4-dihydroxyphenyl)propanoate]",,≥10%,≥ 60%,≥10%,,≥10%,,≥10%,≥10%,≥10%,≥10%,≥ 10%
